# “Also recorded” adds a separate entry of the source. Marks after values point to notes of the source that are not given here.
# Columns and labels:
# [1] = Light treatment of soyasaponin extracts/solutions followed by HPLC/ELSD (peak area ratio to internal standard alpha-hederin); assay type: physicochemical; settings: 80% methanol; for D-I/D-I + S-I + S-VI / HPLC/ELSD component peak area to internal standard ratio, D-I / HPLC/ELSD component peak area to internal standard ratio, S-I / HPLC/ELSD component peak area to internal standard ratio, S-VI / HPLC/ELSD component peak area to internal standard ratio, total soyasaponins / HPLC/ELSD component peak area to internal standard ratio, unretained: 2 days fluorescent light
# Method: HPLC and mass spectrometry. HP-20 MeOH samples (N=3) were prepared in 80% methanol at 8 mg/mL ( ? -hederin at 0.25 mg/mL) and syringe filtered (0.45 μm pore size, nylon membrane type, Chromatographic Specialties, Brockville, ON) into 0.25 mL glass autosampler vial inserts (Fisher no. 03-375-3A). The solutions were maintained at 15° C. before injection ([…] volume). The instrument consisted of an Alliance 2690 separations module (Waters Canada, Mississauga, ON) equipped with vacuum solvent degassing, a Waters 996 photodiode array detector (PDA) and a PL-EMD-960 evaporative light scattering detector (ELSD) (Polymer Laboratories, Amherst, Mass.) controlled by Waters Millennium software. Settings for the ELSD were attenuation=1, time constant=1 second, temperature=90°, PMT level=6 and airflow=4 liters/min. A reversed phase C-18 Symmetry™ column (3.0×150 mm, 5 μm particle size) purchased from Waters Canada and maintained at 30° C. was used. The mobile phase consisted of 0.05% trifluoroacetic acid (TFA) in water (solvent A) and 0.05% TFA in acetonitrile (solvent B), delivered at a flow rate of 0.4 mL/min. The gradient elution program consisted of 95% A and 5% B at time 0. After 10 min, the composition was 65% A and 35% B (linear, curve 6 gradient). At that time, the linear gradient progressed to 50% A and 50% B over 15 min and to 5% A-95% B over 5 min before reverting to 95% A and 5% B from 35 to 43 min. Mean values of the peak area ratios from single analysis of the three samples from each variety were reported. […]
# To further investigate the possibility of S-VI undergoing visible-light-mediated phototransformation to D-I, a source of the unstable S-VI was required as well as other chromatographic fractions that might contain a photosensitizer. Starting with defatted Amit chickpea flour and with brief (minimal) exposure to visible laboratory light, we therefore isolated by the traditional hot methanol and Diaion HP-20 procedures (of Table 1) a dried HP-20 MeOH extract containing S-VI. The earlier-eluting aqueous methanol fractions (also isolated in powder form) were additionally obtained as a potential source of the photosensitizer, in addition to the chloroform extract from the defatting step. Three extraction and isolation experiments were completed (prep A, B and E). Aqueous methanol fractions (30% MeOH and <30% MeOH) containing non-saponin components (see example 7) were additionally available from an experiment on the same flour but these fractions had been isolated after exposure of the crude methanol extract to light (see Table 7).
# Three concentrations of a 30% MeOH isolate were used for comparison (two concentrations were previously employed in Table 10). […] D-I to internal standard ratios were 3.3-4, equivalent to the ratios obtained in tests 3 and 4 with the aqueous methanol additions (see also trial 3 of Table 10).
# [2] = tested on: stored product insect pests; settings: D-I isolated from pea; cited from earlier work
# [3] = target: calcium-dependent potassium channels (Homo sapiens, UniProt Q12791+Q16558); settings: cited from earlier work
# [4] = Solubility of photosensitizer in extraction solvents; assay type: physicochemical
# [5] = potential photosensitizer 10 μM added to 100% MeOH fraction (3 mg) of Amit chickpea
# [6] = potential photosensitizer 50 μM added to 100% MeOH fraction (3 mg) of Amit chickpea
# [7] = potential photosensitizer 100 μM added to 100% MeOH fraction (3 mg) of Amit chickpea
# [8] = potential photosensitizer 50 μM added to 100% MeOH (2.98 mg) + 30% MeOH (4.47-4.58 mg) fractions
# calcium-dependent potassium channels, sequence (Q12791 whole entry): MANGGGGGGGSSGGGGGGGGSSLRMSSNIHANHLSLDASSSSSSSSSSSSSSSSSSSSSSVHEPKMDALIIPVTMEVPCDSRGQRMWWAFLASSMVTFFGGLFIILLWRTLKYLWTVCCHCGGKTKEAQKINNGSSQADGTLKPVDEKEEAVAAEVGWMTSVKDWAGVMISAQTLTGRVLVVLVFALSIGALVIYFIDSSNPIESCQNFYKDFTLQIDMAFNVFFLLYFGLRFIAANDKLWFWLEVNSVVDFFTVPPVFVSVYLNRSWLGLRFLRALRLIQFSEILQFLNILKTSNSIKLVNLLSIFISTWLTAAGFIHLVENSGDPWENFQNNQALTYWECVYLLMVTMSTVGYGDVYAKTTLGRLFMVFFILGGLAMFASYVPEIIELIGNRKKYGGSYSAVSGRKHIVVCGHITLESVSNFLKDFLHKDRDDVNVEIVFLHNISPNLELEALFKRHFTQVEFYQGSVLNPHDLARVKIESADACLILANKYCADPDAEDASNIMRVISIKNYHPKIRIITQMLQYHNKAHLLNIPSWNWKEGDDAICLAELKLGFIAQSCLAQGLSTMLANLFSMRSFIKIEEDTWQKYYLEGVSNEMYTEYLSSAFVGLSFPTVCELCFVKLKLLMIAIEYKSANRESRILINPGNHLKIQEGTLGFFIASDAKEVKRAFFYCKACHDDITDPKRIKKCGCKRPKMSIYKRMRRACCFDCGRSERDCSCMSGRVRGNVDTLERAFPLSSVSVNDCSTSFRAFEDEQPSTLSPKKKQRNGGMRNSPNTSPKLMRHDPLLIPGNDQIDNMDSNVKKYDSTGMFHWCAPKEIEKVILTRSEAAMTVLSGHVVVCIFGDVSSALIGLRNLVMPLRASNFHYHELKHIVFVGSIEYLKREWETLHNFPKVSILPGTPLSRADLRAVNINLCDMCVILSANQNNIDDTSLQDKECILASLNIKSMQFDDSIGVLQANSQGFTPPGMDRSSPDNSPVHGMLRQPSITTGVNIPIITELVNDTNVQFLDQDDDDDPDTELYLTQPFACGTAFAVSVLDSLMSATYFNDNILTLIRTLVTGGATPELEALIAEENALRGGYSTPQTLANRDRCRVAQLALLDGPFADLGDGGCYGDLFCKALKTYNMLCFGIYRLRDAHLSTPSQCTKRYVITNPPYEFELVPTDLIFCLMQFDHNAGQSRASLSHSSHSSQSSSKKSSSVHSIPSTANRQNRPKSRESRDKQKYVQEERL
# calcium-dependent potassium channels, sequence (Q16558 whole entry): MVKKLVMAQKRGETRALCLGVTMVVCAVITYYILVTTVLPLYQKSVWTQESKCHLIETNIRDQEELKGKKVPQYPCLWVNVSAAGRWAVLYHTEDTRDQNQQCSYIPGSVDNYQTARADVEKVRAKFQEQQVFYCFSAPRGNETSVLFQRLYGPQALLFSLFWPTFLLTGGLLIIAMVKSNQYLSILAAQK
Compound,"D-I/D-I + S-I + S-VI [1, 5]","HPLC/ELSD component peak area to internal standard ratio, D-I [1, 5]","HPLC/ELSD component peak area to internal standard ratio, S-I [1, 5]","HPLC/ELSD component peak area to internal standard ratio, S-VI [1, 5]","HPLC/ELSD component peak area to internal standard ratio, total soyasaponins [1, 5]","HPLC/ELSD component peak area to internal standard ratio, unretained [1, 5]","D-I/D-I + S-I + S-VI [1, 6]","HPLC/ELSD component peak area to internal standard ratio, D-I [1, 6]","HPLC/ELSD component peak area to internal standard ratio, S-I [1, 6]","HPLC/ELSD component peak area to internal standard ratio, S-VI [1, 6]","HPLC/ELSD component peak area to internal standard ratio, total soyasaponins [1, 6]","HPLC/ELSD component peak area to internal standard ratio, unretained [1, 6]","D-I/D-I + S-I + S-VI [1, 7]","HPLC/ELSD component peak area to internal standard ratio, D-I [1, 7]","HPLC/ELSD component peak area to internal standard ratio, S-I [1, 7]","HPLC/ELSD component peak area to internal standard ratio, S-VI [1, 7]","HPLC/ELSD component peak area to internal standard ratio, total soyasaponins [1, 7]","HPLC/ELSD component peak area to internal standard ratio, unretained [1, 7]",further results
Cc1cc2nc3c(=O)[nH]c(=O)nc-3n(C[C@H](O)[C@H](O)[C@H](O)COP(=O)(O)O)c2cc1C [FMN],0.3,3.3,6.5,<0.003,9.9,4.8,0.4,2.9,4.5,<0.003,7.4,5.1,0.5,1.8,0.3^f,<0.003,2.1,6.5,–
Cc1cc2nc3c(=O)[nH]c(=O)nc-3n(C[C@H](O)[C@H](O)[C@H](O)COP(=O)(O)OP(=O)(O)OC[C@H]3O[C@@H](n4cnc5c(N)ncnc54)[C@H](O)[C@@H]3O)c2cc1C [FAD],0.3,3.3,6.8,<0.003,10.1,5.1,0.4,3.0,5.5,<0.003,8.6,5.6,0.4,2.8,4.0,<0.003,6.7,6.9,–
dehydrosoyasaponin I [D-I],–,–,–,–,–,–,–,–,–,–,–,–,–,–,–,–,–,–,insecticidal and antifeedant properties [2]: insecticidal and antifeedant properties; activity on calcium-dependent (calcium-activated) potassium channels ([3]; D-I isolated from leaves of Desmodium adscendens): high-affinity activator; also recorded: potent calcium-activated potassium channel opener; potency as a potassium channel opener relative to S-I ([3]; compared with S-I): 60 fold
Cc1cc2nc3c(=O)[nH]c(=O)nc-3n(C[C@H](O)[C@H](O)[C@H](O)CO)c2cc1C [riboflavin],–,–,–,–,–,–,–,–,–,–,–,–,–,–,–,–,–,–,solubility in 80% methanol ([4]; 80% methanol): soluble; solubility in chloroform ([4]; chloroform): sparingly soluble
"CC1=C(O)C(=O)C[C@H](O[C@@H]2CC(C)(C)C[C@H]3C4=CC[C@@H]5[C@@]6(C)CC[C@H](O[C@@H]7O[C@H](C(=O)O)[C@@H](O)[C@H](O)[C@H]7O[C@@H]7O[C@H](CO)[C@H](O)[C@H](O)[C@H]7O[C@@H]7O[C@@H](C)[C@H](O)[C@@H](O)[C@H]7O)[C@](C)(CO)[C@@H]6CC[C@@]5(C)[C@]4(C)CC[C@@]23C)O1 [S-VI, soyasaponin VI]",–,–,–,–,–,–,–,–,–,–,–,–,–,–,–,–,–,–,"stability to fluorescent light ([1]; laboratory fluorescent light levels, room temperature, a few days): labile"
COc1c2ccoc2cc2oc(=O)ccc12 [bergapten],0.1,1.6,8.2,1.2,11.0,4.8,0.1,1.2,6.0,1.2,8.4,3.8,0.2,1.7,8.0,1.4,11.1,4.4,"D-I/D-I + S-I + S-VI [1, 8]: 0.3; HPLC/ELSD component peak area to internal standard ratio, D-I [1, 8]: 3.6; HPLC/ELSD component peak area to internal standard ratio, S-I [1, 8]: 7.4; HPLC/ELSD component peak area to internal standard ratio, S-VI [1, 8]: <0.003; HPLC/ELSD component peak area to internal standard ratio, total soyasaponins [1, 8]: 11.0; HPLC/ELSD component peak area to internal standard ratio, unretained [1, 8]: 70.7"

# From US8247541B2, “Plant compositions enriched in dehydrosoyasaponin I (D-I) and methods of producing such compositions” (Her Majesty the Queen in right of Canada, as represented by …, priority 2007, dated 2012)
